{"source": "patent US20070128669A1", "about": "“Serum-free expansion of cells in culture” (Institute for Chemical Genomics, priority 2005, published 2007)", "key": {"[1]": {"system": "Murine ESCs (D3 ES)", "test": "SSEA-1 expression of ESCs by flow cytometry", "format": "cell-based, mouse", "settings": "7 days after addition of IQ-1", "experimental": "Flow Cytometry. Analysis of SSEA-1 expression of ESCs was performed by flow cytometry according to Zandstra et al. (35). The test cell population was washed in ice cold Hanks balanced salt solution (Invitrogen) containing 2% FCS(HF) and resuspended for 10 min in HF containing anti-mouse CD16/CD32 monoclonal antibody at 1 μg/100 μl (Pharmingen) to block nonspecific binding. Blocked cells were then incubated at 1×10^7 cells/ml for 40 min on ice with anti-SSEA-1 (Kyowa Medex) followed by FITC-Goat anti Mouse IgM antibody (ZYMED). Cells to be analyzed for their SSEA-1 expression were then washed twice in HF with 2 μg/ml propidium iodide (Dojindo) added into the final wash. The cells were then resuspended in HF for analysis on a FACS Calibur (Becton Dickinson)."}, "[2]": {"system": "Nanog gene expression in ESCs", "test": "Real-time RT-PCR for Nanog in feeder-free ESCs", "format": "cell-based, mouse", "experimental": "FIG. 2. […] Real-time RT-PCR for Nanog was performed. The control expression level of Nanog at day 0 was set at 1. FIG. 2B, removal of IQ-1 decreases Nanog gene expression in ESCs. IQ-1 was removed from ESCs which had been cultured under feeder-free system and in the presence of IQ-1 (4 μg/ml), for three days. At the end of this period, mRNA was isolated and real-time RT-PCR was performed to assay for Nanog gene expression. FIG. 2C, effects of IQ-1 were not mediated through Stat3 signaling pathway as judged by luciferase reporter assay. Feeder-free ESCs, transfected with the pSTAT3-TA-Luc reporter, were exposed to IQ-1 at the indicated doses, or LIF. All error bars represent mean±SD.\nReal-time RT-PCR. Total RNA was isolated and reverse-transcribed using SuperScript III (Invitrogen). Real-time RT-PCR (Sybr Green; BioRad) was performed using with the gene-specific primers: […]"}, "[3]": {"system": "Stat3 signaling pathway", "test": "pSTAT3-TA-Luc luciferase reporter assay in ESCs", "format": "cell-based, mouse", "settings": "24 hours exposure", "experimental": "Transfection and Luciferase assay. ESCs were cultured in 96-well cell culture dishes coated with a 0.1% aqueous gelatin solution and transfected with 0.2 μg/well of pSTAT3-TA-Luc (CLONTECH), using Lipofectamine 2000 (Invitrogen). After 6 hours, cells were washed and exposed to either IQ-1 at the indicated doses, or LIF, for 24 hours. Transfection efficiencies were normalized with pRL-null luciferase plasmid. Luciferase assays were performed with the DUAL-Luciferase Reporter Assay System (Promega)."}, "[4]": {"system": "TCF/β-catenin reporter in NIH-3T3 cells", "test": "TOPFLASH/FOPFLASH TCF/β-catenin reporter assay in NIH-3T3 cells", "format": "cell-based", "experimental": "(§1) NIH-3T3 cells (wt), NIH-3T3 CBP(+/−) cells and NIH-3T3 p300(+/−) cells were transfected as described in (26). Briefly, cells were transfected with TOPFLASH or FOPFLASH, using Fugene6 (Roche Molecular Biochemicals). Transfection efficiencies were normalized with pRL-null luciferase plasmid. Luciferase assays were performed with the DUAL-Luciferase Reporter Assay System (Promega).\nas §1, with “In certain experiments, NIH-3T3 cells” for “NIH-3T3 cells”\nThe Wnt/β-catenin reporter constructs TOPFLASH and FOPFLASH in wild-type NIH-3T3 cells (wt), NIH-3T3 CBP(+/−) cells and NIH-3T3 p300(+/−) cells were used to determine whether IQ-1, by targeting the PR72/130 subunit with PP2A, was selectively increasing β-catenin's usage of CBP as a coactivator at the expense of p300, thereby maintaining the ESCs in the undifferentiated state (FIG. 4A). A point mutant constitutively translocating β-catenin (pt-mut β-cat) was used to stimulate reporter activity (28)."}, "[5]": {"system": "p300 Ser89 phosphorylation", "test": "Immunoblot of p300 and phospho-serine89-p300 in P19 cells", "format": "cell-based", "settings": "Wnt3a stimulated P19 cells, 10 μM, 24 hours", "experimental": "Detection of CBP, p300, and phospho-serine89-p300 in P19 cells. P19 cells exposed to either Wnt3A or vehicle control, after which IQ-1 was added to a final concentration of 10 μM. Control DMSO was 0.025%. Cells were incubated for 24 hours. At the end of this incubation period, cells were washed, lysed and subjected to SDS-PAGE. CBP and p300 were detected using the rabbit polyclonal antibody (A-22)(1:5000); and (C-20)(1:5000) (Santa Cruz), respectively. Phospho-serine89-p300 was detected using custom antisera at a dilution of 1:100."}, "[6]": {"system": "ESCs", "test": "Embryoid body formation and differentiation of long term cultured ESCs", "format": "cell-based, mouse", "experimental": "FIG. 5. […] FIG. 5A, long term cultured ESCs were induced to form embryoid bodies in suspension cultures for 3 days. ESCs cultured in media in the presence of Wnt3A and IQ-1 (4 μg/ml) for 48 days were able to form embryoid bodies (Left). ESCs lose their ability to form embryoid bodies after 3 days of culturing in the absence IQ-1 (Right). FIG. 5B, IQ-1 treated ESCs derived embryoid bodies were cultured (adherence culture) for 7-14 days to induce further differentiation. […] FIG. 5C, model depicting the proposed mechanism of action of IQ-1.\nImmunocytochemistry and Antibodies. Cells were fixed for 20 min with 4% paraformaldehyde in PBS. Immunostaining was carried out using standard protocols. Primary antibodies were used at the following dilutions: anti α-fetoprotein mouse monoclonal (R&D systems, 10 ug/ml), anti-Actin, Smooth muscle Ab-1 mouse monoclonal (LAB VISION, 1:1), anti-GATA4 mouse monoclonal (SANTA CRUZ, 1:100), anti-MAP (microtubule associated protein)2 mouse monoclonal (Chemicon, 1:200), βIII-tubulin mouse monoclonal (Chemicon, 1:200), anti-Oligodendrocyte mouse monoclonal (Chemicon, 1:1,000). Secondary antibodies were Alexa Fluor 488 or 594 goat anti-mouse IgG (H+L)(Invitrogen, 1:200). Cells were imaged using an Olympus IX 70 microscope with ×40-200 magnification."}, "[7]": {"settings": "stimulated with pt-mut β-catenin"}}}
{"smiles": "CC(=O)c1ccc(NN=C(C(N)=O)C2=NC(C)(C)Cc3ccccc32)cc1", "note": "[IQ-1]", "values": [{"measurement": "SSEA-1 expression", "setting": "[1]", "value": "enhanced expression"}, {"measurement": "Nanog level after removal of IQ-1 from culture", "setting": "[2]; IQ-1 (4 μg/ml) removed for three days", "value": "precipitous drop in Nanog level"}, {"measurement": "Nanog expression", "setting": "[2]; feeder-free ESCs, IQ-1 4 μg/ml or LIF 1000 U/ml, 21 hrs", "value": "significantly increased and maintained Nanog expression"}, {"measurement": "Stat3/luciferase expression", "setting": "[3]", "value": "did not affect Stat3/luciferase expression"}, {"measurement": "Fopflash reporter activity", "setting": "[4]; NIH-3T3 cells", "value": "no effect"}, {"measurement": "TOPFLASH activity, NIH-3T3 CBP (+/−) cells", "setting": "[4]; [7]", "value": "did not affect TOPFLASH or FOPFLASH activity"}, {"measurement": "TOPFLASH activity, wt NIH-3T3 cells", "setting": "[4]; [7]", "value": "did not affect TOPFLASH or FOPFLASH activity"}, {"measurement": "increase in TOPFLASH activity, NIH-3T3 p300 (+/−) cells", "setting": "[4]; [7]", "value": "2-3 fold"}, {"measurement": "phosphorylation level of p300 Ser89", "setting": "[5]", "value": "dramatic decrease"}, {"measurement": "total amount of p300", "setting": "[5]", "value": "not affected"}, {"measurement": "pluripotency: embryoid body formation and differentiation to three germ layers", "setting": "[6]; IQ-1 (4 μg/ml) and Wnt3a, after day 48", "value": "maintained the pluripotency of ESCs"}, {"measurement": "time to loss of pluripotency after removal of IQ-1", "setting": "[6]; removal of IQ-1", "value": "≤ 3", "unit": "days"}]}
